The Tmax is the time from dosing to the highest level.

Data on one molecule can be found in patent publication US20070196490A1, “Method of enhancing needleless transdermal powered drug delivery” (priority 1999, published 2007).

Each structure is given as a SMILES string.

For series [1] the following is noted: female, human, in vivo.
Procedure: (§1) In order to evaluate the bioavailability of a peptide drug (calcitonin) administered via particle injection, with and without post administration patch occlusion (relative to subcutaneous injection), the following clinical study was carried out.
(§2) For subcutaneous injections, Miacalcic® calcitonin product was obtained from a commercial source and contained approximately 25 μg (100 IU) of salmon calcitonin (sCT) per ml. For particle injections, the calcitonin composition was formed from sCT at 8% w/w, PVP excipient at 2% w/w, in mannitol. The calcitonin composition was then lyophilized, compressed and then milled to produce particles suitable for use in a particle injection device. […] The 38-53 μm sieve fraction was obtained using a standard mesh screen.
(§3) All particle injections were carried out using a PowderJect® model ND1 needleless syringe fitted with a porous silencer (obtained from PowderJect Technologies, Inc., Fremont, Calif.). […] The devices were operated as described in the '796 patent, using a 60 bar gas source, in order to deliver the sCT particles.
(§4) Occlusive patches were produced by cutting Parafilm® discs which were held in-place by an adhesive dressing. In experimental groups receiving an occlusive dressing, the patch was placed on the skin covering the site of particle administration after sCT delivery and left in-place for the duration of the study (4 hours).
(§5) The overall approach involved measuring pharmacokinetic and pharmacodynamic response parameters following the sCT dose in 24 healthy female subjects. The trial was designed as a single center, open, parallel group trial.
(§6) Blood samples were collected via an indwelling catheter prior to and at 2, 5, 10, 20, 30, 45, 60, 90, 120, 180 and 240 minutes following administration of the calcitonin dose. sCT plasma concentrations were determined by ELISA (PPD Development, VA).
A further series in a line: clinical. Particulars: female, human, in vivo.

Procedure for clinical: as §1, §2, §3, §4, §5, §6

Regarding `CC(C)C[C@H](NC(=O)[C@H](CCCCN)NC(=O)CNC(=O)[C@H](CC(C)C)NC(=O)[C@@H](NC(=O)[C@@H]1CSSC[C@H](N)C(=O)N[C@@H](CO)C(=O)N[C@@H](CC(N)=O)C(=O)N[C@@H](CC(C)C)C(=O)N[C@@H](CO)C(=O)N[C@@H]([C@@H](C)O)C(=O)N1)C(C)C)C(=O)N[C@@H](CO)C(=O)N[C@@H](CCC(N)=O)C(=O)N[C@@H](CCC(=O)O)C(=O)N[C@@H](CC(C)C)C(=O)N[C@@H](Cc1c[nH]cn1)C(=O)N[C@@H](CCCCN)C(=O)N[C@@H](CC(C)C)C(=O)N[C@@H](CCC(N)=O)C(=O)N[C@H](C(=O)N[C@@H](Cc1ccc(O)cc1)C(=O)N1CCC[C@H]1C(=O)N[C@@H](CCCNC(=N)N)C(=O)N[C@H](C(=O)N[C@@H](CC(N)=O)C(=O)N[C@H](C(=O)NCC(=O)N[C@@H](CO)C(=O)NCC(=O)N[C@H](C(=O)N1CCC[C@H]1C(N)=O)[C@@H](C)O)[C@@H](C)O)[C@@H](C)O)[C@@H](C)O` [sCT, salmon calcitonin], in series [1], the “mean bioavailability (BA) relative to the SC injection” value was found to be 5.1%. Further, the Tmax in the series “clinical” (sc) was 20 min; in “clinical” (topical or ocular, 300 ug) it was 5 min.
